{"source": "ChEMBL document CHEMBL1126959", "about": "“HMG-CoA reductase inhibitors: design, synthesis, and biological activity of tetrahydroindazole-substituted 3,5-dihydroxy-6-heptenoic acid sodium salts” (J Med Chem, 1993)", "key": {"[1]": {"target": "T1, 3-hydroxy-3-methylglutaryl-coenzyme A reductase (Rattus norvegicus, UniProt P51639)", "T1 sequence (P51639 whole entry)": "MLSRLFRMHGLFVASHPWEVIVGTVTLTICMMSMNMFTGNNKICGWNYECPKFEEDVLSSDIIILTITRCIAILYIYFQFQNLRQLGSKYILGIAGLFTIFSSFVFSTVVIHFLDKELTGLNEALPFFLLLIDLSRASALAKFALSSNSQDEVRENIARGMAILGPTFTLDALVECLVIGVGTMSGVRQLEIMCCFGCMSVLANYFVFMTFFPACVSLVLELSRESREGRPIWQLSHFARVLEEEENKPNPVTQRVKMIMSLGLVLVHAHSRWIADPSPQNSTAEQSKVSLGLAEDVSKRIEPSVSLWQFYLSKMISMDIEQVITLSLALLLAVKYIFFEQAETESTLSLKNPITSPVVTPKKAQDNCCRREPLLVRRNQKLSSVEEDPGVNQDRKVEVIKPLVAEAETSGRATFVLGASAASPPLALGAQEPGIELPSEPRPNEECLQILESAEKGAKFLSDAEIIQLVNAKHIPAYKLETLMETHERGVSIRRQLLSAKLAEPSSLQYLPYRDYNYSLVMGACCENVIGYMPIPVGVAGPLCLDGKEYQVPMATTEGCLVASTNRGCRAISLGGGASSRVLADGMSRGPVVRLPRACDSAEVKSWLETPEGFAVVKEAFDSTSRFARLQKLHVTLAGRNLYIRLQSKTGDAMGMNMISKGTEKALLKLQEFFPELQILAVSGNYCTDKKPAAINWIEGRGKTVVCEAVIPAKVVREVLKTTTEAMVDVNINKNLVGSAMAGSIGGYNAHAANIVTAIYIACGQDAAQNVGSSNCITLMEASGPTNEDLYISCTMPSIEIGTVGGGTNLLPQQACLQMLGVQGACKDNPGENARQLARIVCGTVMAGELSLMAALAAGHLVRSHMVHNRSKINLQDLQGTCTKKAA", "test": "Inhibitory activity against partially purified rat liver HMG-CoA reductase in vitro; 0.07-0.27"}, "HepG2 [2]": {"test_system": "HepG2", "test": "Tested for ability to inhibit incorporation of [14C]acetate into cholesterol in cultured human hepatoma (HEP-G2) cells; 0.56-2.2", "assay_type": "functional, cell-based"}, "HepG2 [3]": {"test_system": "HepG2", "test": "Tested for ability to inhibit incorporation of [14C]acetate into cholesterol in cultured human hepatoma (HEP-G2) cells; 0.019-0.14", "assay_type": "functional, cell-based"}, "[4]": {"target": "T1, 3-hydroxy-3-methylglutaryl-coenzyme A reductase", "test": "Inhibitory activity against partially purified rat liver HMG-CoA reductase in vitro; 0.0073-0.017"}, "[5]": {"target": "T1, 3-hydroxy-3-methylglutaryl-coenzyme A reductase", "test": "Inhibitory activity against partially purified rat liver HMG-CoA reductase in vitro; 0.038-0.18"}, "HepG2 [6]": {"test_system": "HepG2", "test": "Tested for ability to inhibit incorporation of [14C]acetate into cholesterol in cultured human hepatoma (HEP-G2) cells; 0.70-1.4", "assay_type": "functional, cell-based"}, "HepG2 [7]": {"test_system": "HepG2", "test": "Tested for ability to inhibit incorporation of [14C]acetate into cholesterol in cultured human hepatoma (HEP-G2) cells; 0.051-0.12", "assay_type": "functional, cell-based"}, "[8]": {"target": "T1, 3-hydroxy-3-methylglutaryl-coenzyme A reductase", "test": "Inhibitory activity against partially purified rat liver HMG-CoA reductase in vitro; 0.021-0.036"}, "[9]": {"target": "T1, 3-hydroxy-3-methylglutaryl-coenzyme A reductase", "test": "Inhibitory activity against partially purified rat liver HMG-CoA reductase in vitro; 4.1-22"}, "[10]": {"target": "T1, 3-hydroxy-3-methylglutaryl-coenzyme A reductase", "test": "Inhibitory activity against partially purified rat liver HMG-CoA reductase in vitro; 2.1-54"}, "[11]": {"target": "T1, 3-hydroxy-3-methylglutaryl-coenzyme A reductase", "test": "Inhibitory activity against partially purified rat liver HMG-CoA reductase in vitro; 0.026-0.34"}, "HepG2 [12]": {"test_system": "HepG2", "test": "Tested for ability to inhibit incorporation of [14C]acetate into cholesterol in cultured human hepatoma (HEP-G2) cells; 0.16-0.68", "assay_type": "functional, cell-based"}, "[13]": {"target": "T1, 3-hydroxy-3-methylglutaryl-coenzyme A reductase", "test": "Inhibitory activity against partially purified rat liver HMG-CoA reductase in vitro; 0.73-10"}, "HepG2 [14]": {"test_system": "HepG2", "test": "Tested for ability to inhibit incorporation of [14C]acetate into cholesterol in cultured human hepatoma (HEP-G2) cells; 0.73-91", "assay_type": "functional, cell-based"}, "[15]": {"target": "T1, 3-hydroxy-3-methylglutaryl-coenzyme A reductase", "test": "Inhibitory activity against partially purified rat liver HMG-CoA reductase in vitro; 3.8-19"}, "[16]": {"target": "T1, 3-hydroxy-3-methylglutaryl-coenzyme A reductase", "test": "Inhibitory activity against partially purified rat liver HMG-CoA reductase in vitro; 3.1-9.1"}, "[17]": {"target": "T1, 3-hydroxy-3-methylglutaryl-coenzyme A reductase", "test": "Inhibitory activity against partially purified rat liver HMG-CoA reductase in vitro; 0.16-0.24"}, "HepG2 [18]": {"test_system": "HepG2", "test": "Tested for ability to inhibit incorporation of [14C]acetate into cholesterol in cultured human hepatoma (HEP-G2) cells; 0.0071-23", "assay_type": "functional, cell-based"}, "[19]": {"target": "T1, 3-hydroxy-3-methylglutaryl-coenzyme A reductase", "test": "Inhibitory activity against partially purified rat liver HMG-CoA reductase in vitro; 1.9-5.3"}, "HepG2 [20]": {"test_system": "HepG2", "test": "Tested for ability to inhibit incorporation of [14C]acetate into cholesterol in cultured human hepatoma (HEP-G2) cells; 0.15-0.33", "assay_type": "functional, cell-based"}, "[21]": {"target": "T1, 3-hydroxy-3-methylglutaryl-coenzyme A reductase", "test": "Inhibitory activity against partially purified rat liver HMG-CoA reductase in vitro; 0.0040-0.053"}, "[22]": {"target": "T1, 3-hydroxy-3-methylglutaryl-coenzyme A reductase", "test": "Inhibitory activity against partially purified rat liver HMG-CoA reductase in vitro; 0.027-0.046"}, "HepG2 [23]": {"test_system": "HepG2", "test": "Tested for ability to inhibit incorporation of [14C]acetate into cholesterol in cultured human hepatoma (HEP-G2) cells; 0.44-3.0", "assay_type": "functional, cell-based"}, "[24]": {"target": "T1, 3-hydroxy-3-methylglutaryl-coenzyme A reductase", "test": "Inhibitory activity against partially purified rat liver HMG-CoA reductase in vitro; 0.12-0.21"}, "HepG2 [25]": {"test_system": "HepG2", "test": "Tested for ability to inhibit incorporation of [14C]acetate into cholesterol in cultured human hepatoma (HEP-G2) cells; 0.31-2.4", "assay_type": "functional, cell-based"}}, "data": [{"smiles": "O=C(O)C[C@H](O)C[C@H](O)/C=C/c1c2c(nn1-c1ccc(F)cc1)C(Cc1ccc(Cl)cc1)CCC2", "note": "(stereo not given in full)", "values": [{"measurement": "IC50", "setting": "[1]", "value": 140, "unit": "nM"}, {"measurement": "IC50", "setting": "HepG2 [2]", "value": 1100, "unit": "nM"}]}, {"smiles": "CC[C@H](C)C(=O)O[C@H]1C[C@@H](C)C=C2C=C[C@H](C)[C@H](CC[C@@H]3C[C@@H](O)CC(=O)O3)C21", "note": "(stereo not given in full)", "values": [{"measurement": "IC50", "setting": "HepG2 [3]", "value": 50, "unit": "nM"}, {"measurement": "IC50", "setting": "[4]", "value": 9.2, "unit": "nM"}]}, {"smiles": "O=C(O)C[C@H](O)C[C@H](O)/C=C/c1c2c(nn1-c1ccc(F)cc1)C(C/C=C/c1ccccc1)CCC2", "note": "(stereo not given in full)", "values": [{"measurement": "IC50", "setting": "[5]", "value": 82, "unit": "nM"}, {"measurement": "IC50", "setting": "HepG2 [6]", "value": 1000, "unit": "nM"}]}, {"smiles": "Cc1ccc(CC2CCCc3c2nn(-c2ccc(F)cc2)c3/C=C/[C@@H](O)C[C@@H](O)CC(=O)O)cc1", "note": "(stereo not given in full)", "values": [{"measurement": "IC50", "setting": "HepG2 [7]", "value": 78, "unit": "nM"}, {"measurement": "IC50", "setting": "[8]", "value": 28, "unit": "nM"}]}, {"smiles": "O=C(O)C[C@H](O)C[C@H](O)/C=C/c1c2c(nn1-c1ccc(F)cc1)-c1ccccc1CC2", "values": [{"measurement": "IC50", "setting": "[9]", "value": 9400, "unit": "nM"}]}, {"smiles": "O=C(O)C[C@H](O)C[C@H](O)/C=C/c1c2c(nn1-c1ccc(F)cc1)CCC2", "values": [{"measurement": "IC50", "setting": "[10]", "value": 11000, "unit": "nM"}]}, {"smiles": "O=C(O)C[C@H](O)C[C@H](O)/C=C/c1c2c(nn1-c1ccc(F)cc1)C(Cc1ccccc1Cl)CCC2", "note": "(stereo not given in full)", "values": [{"measurement": "IC50", "setting": "[11]", "value": 95, "unit": "nM"}, {"measurement": "IC50", "setting": "HepG2 [12]", "value": 330, "unit": "nM"}]}, {"smiles": "O=C(O)C[C@H](O)C[C@H](O)/C=C/c1c2c(nn1-c1ccc(F)cc1)C(c1ccccc1)CCC2", "note": "(stereo not given in full)", "values": [{"measurement": "IC50", "setting": "[13]", "value": 2800, "unit": "nM"}, {"measurement": "IC50", "setting": "HepG2 [14]", "value": 8100, "unit": "nM"}]}, {"smiles": "O=C(O)C[C@H](O)C[C@H](O)/C=C/c1c2c(nn1-c1ccc(F)cc1)C(C1CCCCC1)CCC2", "note": "(stereo not given in full)", "values": [{"measurement": "IC50", "setting": "[15]", "value": 8500, "unit": "nM"}]}, {"smiles": "O=C(O)C[C@H](O)C[C@H](O)/C=C/c1c2c(nn1-c1ccc(F)cc1)CCCC2", "values": [{"measurement": "IC50", "setting": "[16]", "value": 5300, "unit": "nM"}]}, {"smiles": "O=C(O)C[C@H](O)C[C@H](O)/C=C/c1c2c(nn1-c1ccc(F)cc1)C(Cc1ccc(F)cc1)CCC2", "note": "(stereo not given in full)", "values": [{"measurement": "IC50", "setting": "[17]", "value": 200, "unit": "nM"}, {"measurement": "IC50", "setting": "HepG2 [18]", "value": 400, "unit": "nM"}]}, {"smiles": "CCCC1CCCc2c1nn(-c1ccc(F)cc1)c2/C=C/[C@@H](O)C[C@@H](O)CC(=O)O", "note": "(stereo not given in full)", "values": [{"measurement": "IC50", "setting": "[19]", "value": 3400, "unit": "nM"}]}, {"smiles": "CC(C)c1ccc(CC2CCCc3c2nn(-c2ccc(F)cc2)c3/C=C/[C@@H](O)C[C@@H](O)CC(=O)O)cc1", "note": "(stereo not given in full)", "values": [{"measurement": "IC50", "setting": "HepG2 [20]", "value": 230, "unit": "nM"}, {"measurement": "IC50", "setting": "[21]", "value": 40, "unit": "nM"}]}, {"smiles": "COc1cccc(CC2CCCc3c2nn(-c2ccc(F)cc2)c3/C=C/[C@@H](O)C[C@@H](O)CC(=O)O)c1", "note": "(stereo not given in full)", "values": [{"measurement": "IC50", "setting": "[22]", "value": 35, "unit": "nM"}, {"measurement": "IC50", "setting": "HepG2 [23]", "value": 1200, "unit": "nM"}]}, {"smiles": "O=C(O)C[C@H](O)C[C@H](O)/C=C/c1c2c(nn1-c1ccc(F)cc1)C(CCCc1ccccc1)CCC2", "note": "(stereo not given in full)", "values": [{"measurement": "IC50", "setting": "[24]", "value": 160, "unit": "nM"}, {"measurement": "IC50", "setting": "HepG2 [25]", "value": 870, "unit": "nM"}]}]}
